Experiments:
[1] = tested on: indomethacin-induced ulcers (glandular stomach) of rats; assay: therapeutic effect against indomethacin ulcers of rats (method of Somogi et al.); format: in vivo, male rats of Wistar strain; conditions: indomethacin 25 mg/kg, 100 mg/kg p.o., 7 hours
Method: The complexes prepared in Examples 1 and 2, referred to as ATM and AEGCg, respectively, hereinbelow, were tested for the therapeutic activity against gastric ulcers of rats such as pylorus-ligated or indomethacin-induced ulcers.
Separately, according to the method of Somogi, et al. disclosed in J. Pharm. Pharmac., volume 21, page 122 (1969), a group of light male rats of Wistar strain each having a body weight of about 200 g were used to test the therapeutic effect of the complexes against indomethacin ulcers. Each of the rats belonging to the test group was, after 24 hours of fasting, orally administered with ATM or AEGCg suspended in a 5% solution of gum arabic followed by oral administration of indomethacin in a dose of 25 mg/kg body weight after 30 minutes from the administration of the ATM or AEGCg. After 7 hours abstinence from food and water, the rat was killed and the stomach was excised and incised along the greater curvature to measure the length of the ulcers appearing on the glandular stomach. The overall length of the ulcers is given in Table 2 below as the ulcer index. The control group was treated in the same manner as above excepting ATM or AEGCg in the gum arabic solution.

[2] = tested on: gastric juice / peptic activity in rats; assay: antipeptic activity or effect on secretion of gastric juice in pylorus-ligated rats (method of Shay et al.); format: in vivo, male rats of Wistar strain; conditions: 200 mg/kg p.o., 6 hours
Method: Further, the complexes were subjected to the test for the antipeptic activity or the effect on the secretion of gastric juice in rats according to the method of Shay, et al. Thus, a group of eight male rats of Wistar strain each having a body weight of about 200 g were used as the test animals. After 24 hours of fasting, the stomach of each rat was ligated at the pyloric part under etherization. Immediately after the ligation, the rat was orally administered with ATM or AEGCg suspended in a 5% solution of gum arabic. After 6 hours of abstinence from food and water, the rat was again etherized to take out the stomach as ligated at the cardiac end. The gastric juice in the stomach was put to centrifugal separation to give a supernatant of which the volume, overall acidity and overall peptic activity were measured to give the results shown in Table 3.

[3] = tested on: pylorus-ligated ulcers (forestomach) of rats; assay: therapeutic activity against pylorus-ligated gastric ulcers of rats (method of Shay et al.); format: in vivo, male rats of Wistar strain; conditions: 100 mg/kg p.o., 18 hours
Method: After fasting 48 hours each rat was put to etherization and the stomach was ligated at the pyloric part. Immediately after the ligation, the rat was orally administered with a suspension of the ATM or AEGCg in a 5% solution of gum arabic. The control group was fed only the solution of gum arabic without either ATM or AEGCg. After 18 hours of abstinence from food and water, the rat was killed and the stomach was excised and incised along the greater curvature to examine the condition of ulcer appearing on the forestomach.

[4] = acute oral toxicity; design: species or system male mice of ddY strain; conditions: mouse, in vivo, male ddY mice, fasted overnight, read-out: 50% lethal dose (LD50)
Text: Lastly, ATM and AEGCg were subjected to the test of acute toxicity by male mice of ddY strain each having a body weight of 20 to 25 g. After fasting overnight, the mice were orally administered with ATM or AEGCg with varied doses to determine the 50% lethal dose (LD50).

## CN/C(=N/CCSCc1nc[nH]c1C)NC#N [Cimetidine]
[1]; overall length of ulcers
  Ulcer index (mm): 13.3 ± 2.8 mm
[1]; ulcer index vs control
  Suppression (%): 62.4%

## Sucralfate
[2]
  Overall acidity (mEq/liter): 85.4 ± 3.8 mEq/liter
  Peptic activity (mg tyrosine): 585.3 ± 68.0 mg tyrosine
  Volume of gastric juice (ml/rat): 7.98 ± 0.39 ml/rat
[2]; peptic activity vs control
  Suppression (%): 35.0%
[3]
  Ulcer index: 2.86 ± 0.40
[3]; ulcer index vs control
  Suppression (%): 41.5%

## O=C(O[C@@H]1Cc2c(O)cc(O)cc2O[C@@H]1c1cc(O)c(O)c(O)c1)c1cc(O)c(O)c(O)c1 [EGCg, (-)-epigallocatechin gallate]
[4]
  LD50: 2500 mg/kg

Reference: patent US4913909A, “Complex of tea-leaf extract and active aluminum hydroxide” (Mitsui Norin Co., Ltd., priority 1986, dated 1990)
